The target in test [1] is T1, PKCθ (Homo sapiens, UniProt Q04759).
T1 construct: purchased Pan Vera
In words: Ki Pan Vera (PV) potency for PKCθ. The class given is biochemical. Conditions: Ki Pan Vera (PV) of PKCθ. The protocol: (§1) For Ki Pan Vera (PV) of PKCθ, entries identified with “A” had values below 100 nM; entries identified with “B” had values below 1 μM; and entries identified with “C” had values below 10 μM.

In test [2] the target is T2, PKC delta (Homo sapiens, UniProt Q05655).
T2 construct: purchased Pan Vera
In words: Ki Pan Vera (PV) potency for PKC delta. Conditions: Ki Pan Vera (PV) of PKC delta. It counts as biochemical. The protocol: [The source words this procedure for another target and reports this target under the same test.] as §1

For test [3], the target named is T3, PKC alpha (Homo sapiens, UniProt P17252).
T3 construct: purchased Pan Vera
In words: Ki Pan Vera (PV) potency for PKC alpha. The class given is biochemical. Conditions: Ki Pan Vera (PV) of PKC alpha. The procedure:
[The source words this procedure for another target and reports this target under the same test.] as §1

The target in test [4] is T4, SGK kinase (Homo sapiens, UniProt O00141).
T4 sequence (O00141 1-431): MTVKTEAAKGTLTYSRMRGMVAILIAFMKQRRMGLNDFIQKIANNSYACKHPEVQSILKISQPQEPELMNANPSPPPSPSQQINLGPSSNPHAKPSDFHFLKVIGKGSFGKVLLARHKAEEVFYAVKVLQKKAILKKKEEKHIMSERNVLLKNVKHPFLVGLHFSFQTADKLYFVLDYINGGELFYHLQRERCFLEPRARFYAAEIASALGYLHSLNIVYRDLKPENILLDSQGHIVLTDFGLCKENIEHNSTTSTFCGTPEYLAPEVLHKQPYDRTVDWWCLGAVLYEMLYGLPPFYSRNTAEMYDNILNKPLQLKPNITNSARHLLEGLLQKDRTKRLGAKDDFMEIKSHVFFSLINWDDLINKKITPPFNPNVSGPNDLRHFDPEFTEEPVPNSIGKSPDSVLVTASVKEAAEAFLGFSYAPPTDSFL
The test can be described thus: IC50 for SGK kinase (selectivity). It counts as biochemical. Conditions: for IC50: read-out: IC50-SGK1. The procedure: Entries identified with “1” had values above 250 nM; entries identified with “2” had values above 1 μM; entries identified with “3” had values above 10 μM.

The test system of test [5] is anti-CD3 induced interleukin-2 (IL-2) production. The test can be described thus: anti-CD3 induced interleukin-2 (IL-2) production in mice. It counts as in vivo. The protocol: The compounds of the invention were also tested in vivo.

SMILES strings stand for the structures.

T2 sequence (Q05655 whole entry): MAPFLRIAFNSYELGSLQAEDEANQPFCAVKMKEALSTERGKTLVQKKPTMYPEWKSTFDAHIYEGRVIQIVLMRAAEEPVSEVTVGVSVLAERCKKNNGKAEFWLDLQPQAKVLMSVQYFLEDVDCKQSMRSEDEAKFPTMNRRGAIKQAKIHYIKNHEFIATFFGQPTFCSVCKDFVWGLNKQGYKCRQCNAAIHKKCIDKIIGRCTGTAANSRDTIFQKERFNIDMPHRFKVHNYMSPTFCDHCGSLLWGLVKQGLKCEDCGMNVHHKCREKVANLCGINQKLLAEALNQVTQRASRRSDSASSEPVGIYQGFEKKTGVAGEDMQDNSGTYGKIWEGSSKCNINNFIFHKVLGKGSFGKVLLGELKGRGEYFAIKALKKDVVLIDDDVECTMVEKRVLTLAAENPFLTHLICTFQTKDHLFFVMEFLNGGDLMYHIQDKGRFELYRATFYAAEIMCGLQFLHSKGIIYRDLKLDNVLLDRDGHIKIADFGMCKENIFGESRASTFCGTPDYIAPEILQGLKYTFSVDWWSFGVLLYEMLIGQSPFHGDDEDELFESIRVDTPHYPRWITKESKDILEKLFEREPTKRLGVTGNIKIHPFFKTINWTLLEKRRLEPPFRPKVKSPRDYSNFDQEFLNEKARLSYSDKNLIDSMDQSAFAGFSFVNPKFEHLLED
T1 sequence (Q04759 whole entry): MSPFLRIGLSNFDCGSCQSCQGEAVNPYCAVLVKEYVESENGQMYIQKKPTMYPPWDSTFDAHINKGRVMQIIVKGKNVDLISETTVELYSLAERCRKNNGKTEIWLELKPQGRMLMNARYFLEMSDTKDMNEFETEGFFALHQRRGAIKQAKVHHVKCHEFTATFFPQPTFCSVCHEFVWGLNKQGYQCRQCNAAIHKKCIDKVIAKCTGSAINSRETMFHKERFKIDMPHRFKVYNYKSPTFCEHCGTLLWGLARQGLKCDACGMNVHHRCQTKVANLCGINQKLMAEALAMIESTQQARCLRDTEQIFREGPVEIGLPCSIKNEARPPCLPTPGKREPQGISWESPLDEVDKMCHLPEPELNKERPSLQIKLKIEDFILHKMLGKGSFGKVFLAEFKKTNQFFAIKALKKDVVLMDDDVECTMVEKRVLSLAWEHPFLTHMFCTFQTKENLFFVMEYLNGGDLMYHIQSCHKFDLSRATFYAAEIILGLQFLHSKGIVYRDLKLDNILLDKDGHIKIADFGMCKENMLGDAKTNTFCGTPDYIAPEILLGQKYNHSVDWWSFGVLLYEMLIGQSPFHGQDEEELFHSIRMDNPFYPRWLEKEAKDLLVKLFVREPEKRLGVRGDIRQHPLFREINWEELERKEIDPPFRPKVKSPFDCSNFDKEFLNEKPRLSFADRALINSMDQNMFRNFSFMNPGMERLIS

As usually defined, the Ki is a measure of affinity in units of concentration, obtained from inhibition or displacement. Read a low Ki as tighter binding. As to `Fc1ccc(CNc2ncc3nc(-c4c(Cl)cccc4Cl)n(C[C@@H]4CCCNC4)c3n2)cc1Cl` [Compound 100], the inhibitory constant (Ki) was below 100 nM in test [1], above 250 nM in test [2] and above 1000 nM in test [3]. The IC50-SGK1 result in test [4] was “Inactive”. The “% inhibition of IL-2 production” value in test [5] (subcutaneous dose 30 mg/kg) stood at 38%.
For `Fc1ccc(CNc2ncc3nc(-c4c(Cl)cccc4Cl)n(C[C@@H]4CCCNC4)c3n2)cc1F` [Compound 101], in that order: below 100 nM, above 250 nM, above 1000 nM, “Inactive” and 58%.
With `Fc1ccc(CNc2ncc3nc(-c4c(F)cccc4Cl)n(C[C@@H]4CCCNC4)c3n2)cc1F` [Compound 113, N-(3,4-difluorobenzyl)-8-(2-chloro-6-fluorophenyl)-9-((R)-piperidin-3-ylmethyl)-9H-purin-2-amine], the Ki was below 100 nM in test [1], above 250 nM in test [2] and above 1000 nM in test [3]. Further, in test [5] (subcutaneous dose 30 mg/kg), the “% inhibition of IL-2 production” value is recorded as 38%.
Turning to `Fc1ccc(CNc2ncc3nc(-c4c(Cl)cccc4Cl)n(C[C@H]4CCNC4)c3n2)cc1Cl` [Compound 120], the Ki in test [1] was below 1000 nM; in test [2], above 1000 nM; in test [3], above 1000 nM. Also, in test [4], the IC50-SGK1 entry is “Inactive”. Besides, in test [5] (subcutaneous dose 30 mg/kg), the “% inhibition of IL-2 production” value stood at 35%.
For orientation: IC50 means the concentration at which inhibition is half-maximal. As for `Fc1ccc(CNc2ncc3nc(-c4c(Cl)cccc4Cl)n(CC4CCNC4)c3n2)cc1` (centres unmarked) [Compound 158], the Ki was below 1000 nM in test [1], above 1000 nM in test [2] and above 1000 nM in test [3]. Also, the IC50 in test [4] was above 10000 nM.
On to `Fc1ccccc1CNc1ncc2nc(-c3c(F)cccc3Cl)n(CC3CCCNC3)c2n1` (centres unmarked) [Compound 160], for which the Ki in test [1] was below 1000 nM; in test [2], above 1000 nM; in test [3], above 1000 nM. The IC50-SGK1 entry in test [4] is listed as “Inactive”.
Regarding `Fc1ccc(F)c(CNc2ncc3nc(-c4c(Cl)cccc4Cl)n(CC4CCNC4)c3n2)c1` (centres unmarked) [Compound 161], the Ki in test [1] is below 100 nM; in test [2], above 250 nM; in test [3], above 250 nM. For the same compound, the half-inhibitory concentration (IC50) in test [4] was above 10000 nM.
`Fc1ccccc1CNc1ncc2nc(-c3c(F)cccc3Cl)n(C[C@H]3CCCNC3)c2n1` [Compound 162]: the Ki is below 1000 nM in test [1], above 10000 nM in test [2] and above 1000 nM in test [3]. In test [4], the IC50-SGK1 entry is on record as “Inactive”.
The corresponding values for `Fc1ccc(CNc2ncc3nc(-c4c(Cl)cccc4Cl)n(CCC4CCNCC4)c3n2)cc1` [Compound 163] are below 1000 nM, above 1000 nM, above 1000 nM and “Inactive”.
Regarding `Fc1ccccc1CNc1ncc2nc(-c3c(Cl)cccc3Cl)n(CCC3CCCNC3)c2n1` (centres unmarked) [Compound 164], the inhibitory constant (Ki) in test [1] is below 1000 nM; in test [2] it was above 1000 nM; in test [3], above 1000 nM. Also, the IC50-SGK1 result in test [4] is on record as “Inactive”.
On to `C[C@H](Nc1ncc2nc(-c3c(Cl)cccc3Cl)n(CC3CCNC3)c2n1)c1ccccc1F` (some centres unmarked) [Compound 166], for which the inhibition constant Ki was below 1000 nM in test [1], above 1000 nM in test [2] and above 1000 nM in test [3]. Further, in test [4], the concentration for half-maximal inhibition (IC50) was above 10000 nM.
As to `Fc1ccc(F)c(CNc2ncc3nc(-c4ccccc4Cl)n(C[C@@H]4CCCNC4)c3n2)c1` [Compound 167], the values for the inhibitory constant (Ki) in test [1], in test [2] and in test [3] were below 1000 nM, above 1000 nM and above 10000 nM, respectively. In test [4], the IC50-SGK1 result is “Inactive”.
The corresponding values for `Clc1cccc(Cl)c1-c1nc2cnc(NCc3cccs3)nc2n1C[C@H]1CCNC1` [Compound 170] are below 1000 nM, above 1000 nM, above 1000 nM and “Inactive”.
For `Fc1ccc(CNc2ncc3nc(-c4ccccc4Cl)n(C[C@@H]4CCCNC4)c3n2)cc1` [Compound 171], the inhibition constant Ki in test [1] is below 1000 nM; in test [2] it was above 1000 nM; in test [3], above 1000 nM. In addition, the IC50-SGK1 result in test [4] is “Inactive”.
With `Fc1ccc(CNc2ncc3nc(-c4c(Cl)cccc4Cl)n(CC4CCNC4)c3n2)c(F)c1` (centres unmarked) [Compound 172], the results for the Ki in test [1], in test [2] and in test [3] were below 1000 nM, above 1000 nM and above 1000 nM, respectively. For the same compound, the IC50-SGK1 result in test [4] is “Inactive”.
As for `Clc1ccc(CNc2ncc3nc(-c4c(Cl)cccc4Cl)n(CCC4CCNCC4)c3n2)cc1` [Compound 173], the inhibition constant (Ki) in test [1] was below 10000 nM; in test [2], above 1000 nM; in test [3] it was above 1000 nM. The IC50 in test [4] was above 10000 nM.
`Fc1ccc(CNc2ncc3nc(-c4c(F)cccc4Cl)n(C[C@H]4CCNC4)c3n2)cc1F` [Compound 174]: the inhibitory constant (Ki) in test [1] was below 1000 nM; in test [2], above 1000 nM; in test [3] it was above 1000 nM. Further, the IC50-SGK1 entry in test [4] is given as “Inactive”.
For the compound `Fc1cccc(Cl)c1-c1nc2cnc(NCc3cc(Cl)cc(Cl)c3)nc2n1C[C@@H]1CCCNC1` [Compound 200], the inhibition constant Ki is below 10000 nM in test [1], above 1000 nM in test [2] and above 10000 nM in test [3]. For the same compound, in test [4], the IC50-SGK1 result is given as “Inactive”.
The corresponding values for `Fc1cccc(CNc2ncc3nc(-c4c(F)cccc4Cl)n(C[C@H]4CCNC4)c3n2)c1` [Compound 205] are below 1000 nM, above 1000 nM, above 1000 nM and “Inactive”.
As to `Clc1ccc(CNc2ncc3nc(-c4c(Cl)cccc4Cl)n(CC4CCNC4)c3n2)cc1Cl` (centres unmarked) [Compound 206], the values for the inhibition constant (Ki) in test [1], in test [2] and in test [3] were below 10000 nM, above 1000 nM and above 10000 nM, respectively. Also, the concentration for half-maximal inhibition (IC50) in test [4] is above 10000 nM.
On to `NCCCCCCn1c(-c2ccccc2Cl)nc2cnc(NCc3ccccc3F)nc21` [Compound 207], for which the values for the Ki in test [1], in test [2] and in test [3] were below 10000 nM, above 1000 nM and above 10000 nM, respectively. Also, the IC50-SGK1 result in test [4] is “Inactive”.
The corresponding values for `Fc1ccc(F)c(CNc2ncc3nc(-c4c(F)cccc4Cl)n(C[C@H]4CCNC4)c3n2)c1` [Compound 209] are below 1000 nM, above 1000 nM, above 1000 nM and “Inactive”.
For the compound `Fc1ccc(CNc2ncc3nc(-c4ccccc4Cl)n(C[C@@H]4CCCNC4)c3n2)c(F)c1` [Compound 210], the values for the inhibition constant Ki in test [1], in test [2] and in test [3] were below 10000 nM, above 1000 nM and above 10000 nM, respectively. Besides, in test [4], the IC50-SGK1 entry is reported as “Inactive”.
For the compound `Fc1ccccc1CNc1ncc2nc(-c3c(F)cccc3Cl)n(C[C@H]3CCNC3)c2n1` [Compound 211], the results for the Ki in test [1], in test [2] and in test [3] were below 1000 nM, above 1000 nM and above 1000 nM, respectively. The 50% inhibitory concentration (IC50) in test [4] was above 1000 nM.
In the case of `CC(Nc1ncc2nc(-c3c(Cl)cccc3Cl)n(CCC3CCNCC3)c2n1)c1ccccc1` (centres unmarked) [Compound 212], the inhibitory constant (Ki) in test [1] is below 10000 nM; in test [2], above 10000 nM; in test [3], above 10000 nM. In test [4], the IC50-SGK1 entry is listed as “Inactive”.
For the compound `Fc1cc(Cl)ccc1CNc1ncc2nc(-c3c(Cl)cccc3Cl)n(C[C@@H]3CCCNC3)c2n1` [Compound 213], the Ki was below 10000 nM in test [1], above 10000 nM in test [2] and above 10000 nM in test [3]. The IC50-SGK1 result in test [4] is on record as “Inactive”.
As to `Clc1cccc(Cl)c1-c1nc2cnc(NCc3ccco3)nc2n1CCC1CCNCC1` [Compound 214], the Ki in test [1] is below 10000 nM; in test [2], above 1000 nM; in test [3], above 1000 nM. The 50% inhibitory concentration (IC50) in test [4] is above 10000 nM.
For `Fc1cccc(Cl)c1-c1nc2cnc(NCc3cccc(Cl)c3)nc2n1C[C@H]1CCNC1` [Compound 216], the inhibition constant (Ki) was below 1000 nM in test [1], above 1000 nM in test [2] and above 1000 nM in test [3]. Also, the IC50-SGK1 entry in test [4] is reported as “Inactive”.
For `C[C@H](Nc1ncc2nc(-c3ccccc3Cl)n(C[C@@H]3CCCNC3)c2n1)c1ccccc1F` [Compound 217], the values for the Ki in test [1], in test [2] and in test [3] were below 1000 nM, above 10000 nM and above 10000 nM, respectively. Further, the IC50-SGK1 result in test [4] was “Inactive”.
With `Fc1ccc(CNc2ncc3nc(-c4c(F)cccc4Cl)n(CC4CCNC4)c3n2)cc1F` (centres unmarked) [Compound 223], the inhibition constant (Ki) in test [1] is below 1000 nM; in test [2], above 1000 nM; in test [3] it was above 1000 nM. Moreover, the IC50 in test [4] is above 10000 nM.
Take `Fc1ccccc1CNc1ncc2nc(-c3ccccc3Cl)n(CCC3CCNCC3)c2n1` [Compound 240]: the Ki in test [1] was below 1000 nM; in test [2], above 1000 nM; in test [3] it was above 10000 nM. In addition, the IC50-SGK1 entry in test [4] is “Inactive”.
With `C=CC[C@@H]1/C=C(\C)C[C@H](C)C[C@H](OC)[C@H]2O[C@@](O)(C(=O)C(=O)N3CCCC[C@H]3C(=O)O[C@H](/C(C)=C/[C@@H]3CC[C@@H](O)[C@H](OC)C3)[C@H](C)[C@@H](O)CC1=O)[C@H](C)C[C@@H]2OC` [FK506, reference compound], the “% inhibition of IL-2 production” value in test [5] (subcutaneous dose 1 mg/kg) is recorded as 87%.

(Values after US20110046131A1, “PURINES AS PKC-THETA INHIBITORS” (N.V. Organon and Pharmacopeia, LLC, priority 2006, published 2011).)
